In patent US20250213563A1, “SUBSTITUTED PYRIMIDIN-4(3H)-ONES FOR USE IN TREATING CANCER” (NAVIRE PHARMA, INC., priority 2021, published 2025):

Key:
[1] = system: panel of 73 receptors and ion channels and 12 additional enzymes; experiment: Eurofins Cerep off-target panel; settings: 10 μM
Description: In addition to the kinase and phosphatase screens, Compound (10b) (10 μM) was tested against a panel of 73 receptors and ion channels and 12 additional enzymes using the Eurofins Cerep platform. In this screen, inhibition or stimulation of >50% is considered to be a significant effect.

[2] = system: HCC827 cell line-derived xenograft (CDX) model; experiment: Monotherapy anti-tumor activity, HCC827 CDX model; type: in vivo; settings: for tumor growth inhibition (TGI): day 1 to day 28
Description: An in vivo efficacy study was conducted to evaluate the monotherapy anti-tumor activity of Compound (10b) in female BALB/c nude mice bearing the non-small cell lung cancer (NSCLC) HCC827 cell line-derived xenograft (CDX) model, which harbors an EGFR exon 19 deletion (EGFR^ex19del) and EGFR amplification (EGFRamp). Mice (n=10 per group) were dosed daily orally with the indicated levels of Compound (10b) from day 1 to day 28, and a dose dependent reduction in tumor volume was observed. […] All groups dosed QD, PO Two-way mixed-effects ANOVA: *p<0.0001 vs vehicle.
In vivo efficacy studies were conducted to evaluate the monotherapy anti-tumor activity of Compound (10b) across a panel of cell line-derived xenograft (CDX) models. […] Significant anti-tumor efficacy was also observed in two CDX models with acquired resistance to EGFR inhibitors.

[3] = system: HCC827; experiment: 3D cell viability (CellTiter-Glo); type: cell-based; settings: Homo sapiens, 192 h; HCC827, EGFR^Ex19del; 8 days of treatment; read-out: 3D CTG (IC50)
Description: (§1) The potency of Compound (10b) in a panel of human tumor cell lines with active MAPK signaling was assessed. Cell viability in a 3D culture system was assessed by measuring CellTiter-Glo (CTG) luminescence following 8 days of treatment with nine concentrations of Compound (10b). MAPK pathway signaling was assessed by measuring pERK protein levels and DUSP6 mRNA levels by homogeneous time resolved fluorescence (HTRF) and quantitative polymerase chain reaction (qPCR), respectively. […] These viability effects correlated with pERK inhibition (Table 2, FIG. 6B) and DUSP6 inhibition (FIG. 6C).

[4] = system: KYSE-520; experiment: 3D cell viability (CellTiter-Glo); type: cell-based; settings: Homo sapiens, 192 h; KYSE-520, EGFR^amp; 8 days of treatment; read-out: 3D CTG (IC50)
Description: as §1

[5] = system: NCI-H1299; experiment: 3D cell viability (CellTiter-Glo); type: cell-based; settings: Homo sapiens, 192 h; NCI-H1299, NRAS^Q61K; 8 days of treatment; read-out: 3D CTG (IC50)
Description: as §1

[6] = system: NCI-H1975; experiment: 3D cell viability (CellTiter-Glo); type: cell-based; settings: Homo sapiens, 192 h; NCI-H1975, EGFR^L858R/T790M; 8 days of treatment; read-out: 3D CTG (IC50)
Description: as §1

[7] = system: NCI-H358; experiment: 3D cell viability (CellTiter-Glo); type: cell-based; settings: Homo sapiens, 192 h; NCI-H358, KRAS^G12C; 8 days of treatment; read-out: 3D CTG (IC50)
Description: as §1

## Cc1c(N2CCC3(CC2)CO[C@@H](C)[C@H]3N)nc(C)n(-c2cccc(Cl)c2Cl)c1=O (atropisomer, axis not shown; (Ra)) [Compound (10b), 6-((3S,4S)-4-amino-3-methyl-2-oxa-8-azaspiro[4.5]decan-8-yl)-3-(Ra)-(2,3-dichlorophenyl)-2,5-dimethylpyrimidin-4(3H)-one]
[1]
  inhibition or stimulation of >50%: No effects of this magnitude were observed
[2]; 3 mg/kg QD PO
  tumor growth inhibition (TGI): 41%
[2]; 10 mg/kg QD PO
  tumor growth inhibition (TGI): 84%
[2]; 30 mg/kg QD PO
  tumor growth inhibition (TGI): 98%
[2]; 100 mg/kg QD PO
  mean tumor regression: 60%
[2]; 3-100 mg/kg QD PO
  impact of treatment on body weight: no impact
  tolerability: well tolerated
[2]; QD PO
  ED90: 10 mg/kg
[3]
  IC50: 1200 nM
[4]
  IC50: 210 nM
[5]
  IC50: > 25000 nM
[6]
  IC50: 180 nM
[7]
  IC50: 280 nM
